Source: patent US5869650A, “Dendroamide compounds and their use in chemosensitizing multidrug resistant cells” (Fox Chase Cancer Center, priority 1996, dated 1999)
“Also recorded” adds a separate entry of the source.

Legend:
MCF-7/ADR cells = test: Chemosensitization of MCF-7/ADR cells (sulforhodamine binding assay, cell killing by anticancer drugs); format: cell-based
Method: FIGS. 2A and 2B show the chemosensitization of MCF-7/ADR breast carcinoma cells by Compound A. In FIG. 2A, MCF-7/ADR cells were treated with the indicated concentrations of Compound A in the presence of 15 μM daunomycin (.quadrature.), 200 nM actinomycin D (Δ) or 4 μM cisplatin (.largecircle.). In FIG. 2B, MCF-7 cells (.diamond-solid.) or MCF-7/ADR cells treated with 1% ethanol (.diamond.), 0.6 (.quadrature.) or 2.5 μM of Compound A (Δ) were incubated with the indicated concentrations of vinblastine.
The ability of Compound A to reverse MDR was examined using MCF-7/ADR cells breast carcinoma cells which were obtained as described in Example 5. The effects of Compound A on cell growth were characterized using the sulforhodamine binding assay (P. Skehan et al., J. Natl. Cancer Inst. 82:1107-1112 (1990)) as described in C. D. Smith et al., Oncology Res. 6:211-218 (1994) and C. D. Smith et al., Mol. Pharm. 45:241-247 (1995). Cell survival was assessed after 48 hours of treatment and was expressed as the percentage of cells killed.
The results of the chemosensitization tests showing the effect of the MDR reversing agent Compound A on cell killing by anticancer drugs in the multiple drug resistant MCF-7/ADR cells are shown in FIGS. 2A and 2B. The MCF-7/ADR cells were treated with the indicated concentrations of Compound A in the presence of daunomycin, actinomycin D and or cisplatin. Values shown in FIGS. 2A and 2B represent the mean±standard deviation for triplicate samples in one of two similar experiments.

[1] = test system: MCF-7/VP cells (express multidrug resistance-related protein (MRP)); test: Chemosensitization of MCF-7/VP cells (sulforhodamine binding assay, cytotoxicity of anticancer drugs)
[2] = test system: MCF-7/ADR cells (overexpress P-glycoprotein); test: [3H]vinblastine accumulation in MCF-7/ADR cells; format: cell-based
Method: The reduction in intracellular accumulation of anticancer drugs due to expression of P-glycoprotein can be at least partially reversed by compounds which interact with the drug transporter.
D. Smith et al., Mol. Pharm. 45:241-247 (1995), using 20 nm [^3 H]vinblastine sulfate (10-15 Ci/mmole) from the Amersham Corporation.
[^3 H]vinblastine was then added and its intracellular accumulation after 60 minutes was determined. Values shown in FIG. 1 represent the mean ± standard deviation accumulation of [^3 H]vinblastine in triplicate samples in one of three similar experiments.

P-glycoprotein [3] = target: T1, P-glycoprotein (Homo sapiens, UniProt P08183); test: biochemical
P-glycoprotein [4] = target: T1, P-glycoprotein
MCF-7 cells = test: [3H]vinblastine accumulation in MCF-7 cells; format: cell-based; conditions: parental MCF-7 cells
Method: D. Smith et al., Mol. Pharm.
[^3 H]vinblastine was then added and its intracellular accumulation after 60 minutes was determined.

MDR cells = conditions: cited from earlier work
[5] = Tsuruo et al., Cancer Res. 41:1967 (1981)

T1 sequence (P08183 whole entry): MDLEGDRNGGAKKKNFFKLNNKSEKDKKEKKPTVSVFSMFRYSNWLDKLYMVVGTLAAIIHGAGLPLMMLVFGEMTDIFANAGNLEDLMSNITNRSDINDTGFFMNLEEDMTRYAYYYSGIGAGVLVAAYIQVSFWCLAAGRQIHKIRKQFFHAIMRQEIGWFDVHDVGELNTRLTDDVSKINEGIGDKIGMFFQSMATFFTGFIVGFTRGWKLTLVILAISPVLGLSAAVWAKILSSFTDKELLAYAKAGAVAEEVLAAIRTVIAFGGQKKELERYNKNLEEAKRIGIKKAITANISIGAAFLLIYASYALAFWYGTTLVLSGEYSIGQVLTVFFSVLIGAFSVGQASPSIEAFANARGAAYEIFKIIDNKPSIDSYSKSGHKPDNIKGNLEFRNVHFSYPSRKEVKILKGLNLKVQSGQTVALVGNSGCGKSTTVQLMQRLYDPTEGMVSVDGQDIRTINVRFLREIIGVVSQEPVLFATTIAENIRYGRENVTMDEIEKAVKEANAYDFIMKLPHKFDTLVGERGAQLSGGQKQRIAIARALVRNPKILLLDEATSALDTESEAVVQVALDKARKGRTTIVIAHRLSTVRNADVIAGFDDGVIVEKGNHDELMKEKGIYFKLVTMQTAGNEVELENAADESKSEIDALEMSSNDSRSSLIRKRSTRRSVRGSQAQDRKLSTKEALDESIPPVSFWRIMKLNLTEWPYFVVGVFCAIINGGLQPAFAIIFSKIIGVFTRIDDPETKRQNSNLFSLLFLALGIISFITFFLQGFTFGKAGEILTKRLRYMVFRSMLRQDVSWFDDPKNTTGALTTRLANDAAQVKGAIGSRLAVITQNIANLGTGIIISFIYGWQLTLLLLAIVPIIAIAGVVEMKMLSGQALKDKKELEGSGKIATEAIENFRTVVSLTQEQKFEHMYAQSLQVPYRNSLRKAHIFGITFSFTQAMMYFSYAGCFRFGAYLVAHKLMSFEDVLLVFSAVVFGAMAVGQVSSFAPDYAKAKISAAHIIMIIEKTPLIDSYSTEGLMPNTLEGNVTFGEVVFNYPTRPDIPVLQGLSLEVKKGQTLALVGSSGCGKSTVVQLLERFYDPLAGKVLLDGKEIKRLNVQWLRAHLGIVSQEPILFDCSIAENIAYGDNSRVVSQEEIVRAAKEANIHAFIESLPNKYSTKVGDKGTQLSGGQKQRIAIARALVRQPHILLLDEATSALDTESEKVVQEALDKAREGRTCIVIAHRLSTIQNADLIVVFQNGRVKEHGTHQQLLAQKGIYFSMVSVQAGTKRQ

Cc1oc2nc1C(=O)N[C@H](C(C)C)c1nc(cs1)C(=O)N[C@H](C)c1nc(cs1)C(=O)N[C@@H]2C [Compound A, Cyclo-D-Val-Tzl-D-Ala-Tzl-D-Ala-mOzl]
active concentrations for chemosensitization (in words) (MCF-7/ADR cells; daunomycin or actinomycin D, FIG. 2A): activity at submicromolar concentrations
reversal of P-glycoprotein-mediated MDR (in words) (MCF-7/ADR cells; vinblastine, FIG. 2B): completely overcomes P-glycoprotein-mediated MDR
effect on cell killing by actinomycin D (MCF-7/ADR cells; with actinomycin D (200 nM in FIG. 2A), 48 hours): killed more effectively; also recorded: markedly potentiating cell killing
effect on cytotoxicity of cisplatin (MCF-7/ADR cells; with cisplatin (4 μM in FIG. 2A), 48 hours): did not alter the cytotoxicity of cisplatin
effect on cell killing by daunomycin (MCF-7/ADR cells; with daunomycin (15 μM in FIG. 2A), 48 hours): killed more effectively; also recorded: markedly potentiating cell killing
effect on cell killing by vinblastine (MCF-7/ADR cells; with vinblastine, 48 hours): markedly potentiating cell killing
reversal of MRP-mediated resistance to vincristine (in words) ([1]; MCF-7/VP cells, 10 μM, 48 hours): fully reversed; also recorded: fully reverses MRP-mediated resistance
effect on responses to cisplatin ([1]; MCF-7/VP cells, with cisplatin): did not modulate responses to cisplatin
ability to increase the accumulation of [3H]vinblastine (in words) ([2]; Compound A compared with verapamil): more potent than verapamil; also recorded: strongly enhanced
activity at 5 µM ([2]; Homo sapiens, NCI/ADR-RES, 1 h, 5 μM, 30 min preincubation, accumulation after 60 min, FIG. 1): 750%
EC (maximal effect) ([2]; Homo sapiens, NCI/ADR-RES, 1 h, FIG. 1, read-out: concentration of maximal effect on [3H]vinblastine accumulation): 20 µM
IC50 (P-glycoprotein [3]): 500 nM
binding of [3H]azidopine to P-glycoprotein (in words) (P-glycoprotein [4]): progressive decreases in binding
effect on accumulation of [3H]vinblastine (in words) (MCF-7 cells): Neither Compound A nor verapamil increased the accumulation

COc1ccc(CCN(C)CCCC(C#N)(c2ccc(OC)c(OC)c2)C(C)C)cc1OC (stereo not shown) [verapamil]
effect on accumulation of [3H]vinblastine (in words) (MCF-7 cells): Neither Compound A nor verapamil increased the accumulation
intracellular accumulation of anticancer drugs (in words) (MDR cells; [5]): promote intracellular accumulation of those drugs
sensitization of MDR cells to anticancer drugs (in words) (MDR cells; [5]): sensitize MDR cells to anticancer drugs
reversing activity in cultured cells (in words) (MDR cells; cultured cells): potent and effective reversing agent

CC[C@]1(O)C[C@H]2CN(CCc3c([nH]c4ccccc34)[C@@](C(=O)OC)(c3cc4c(cc3OC)N(C=O)[C@H]3[C@@](O)(C(=O)OC)[C@H](OC(C)=O)[C@]5(CC)C=CCN6CC[C@]43[C@@H]65)C2)C1 [vincristine, reference compound]
fold resistance of MCF-7/VP cells in comparison with MCF-7 cells ([1]; vincristine, MCF-7/VP vs MCF-7 cells): 15 fold
